Source: patent US20070141619A1, “DRUG RESISTANCE-ASSOCIATED GENE AND USE THEREOF” (BANYU PHARMACEUTICAL CO., Ltd., priority 2000, published 2007)

Experiments:
HCT116/NR1 = test: SRB drug sensitivity, Compound-A-resistant HCT116/NR1; assay type: cell-based, human; details: for IC50: Homo sapiens, HCT-116, HCT116/NR1, SRB, 72 hours with agent; for RR: Relative Resistance: IC50 HCT116/NR1 divided by IC50 HCT116
From the text: An emerging colony was isolated and designated as HCT116/NR1.

PC-13/ABCG2-2 = test: SRB drug sensitivity, PC-13 transfected with ABCG2 (clone 2); assay type: cell-based, human; details: IC50 PC-13/ABCG2-2 divided by IC50 of vector cells
Description: (§1) Test cells in the logarithmic growth phase were dispensed into wells of 96-well plate at 1×10^3 cells/well. After subculture for 24 hours in a CO2 incubator, a serial diluted agent was added to each well. After further incubation for 72 hours, the cells were fixed with trichloroacetic acid (TCA) and the proteins in the cells were stained by 0.4% sulforhodamine B solution. The samples were eluted by 10 mM Tris-HCl for 1 hour, and each well was measured at 560 nm with a 450 nm reference, by a SPECTRAmax 250 plate reader (Molecular Devices Corp.).
(§2) PC-13 cells were transfected with the ABCG2 expression plasmids using Effectene Transfection Reagent (QIAGEN). The experiment was performed according to the attached procedural manual. As a control experiment, other PC-13 cells were transfected with vector alone without the ABCG2 sequence. The two experiments were conducted simultaneously. Two days after the transfection, the original media were replaced with selection media containing 0.2 mg/ml of Geneticin (GIBCO BRL). By culture for a long time under this condition, stable transfectant clones with the introduced plasmids were selected. Two weeks from the transfection, emerging colonies were picked and expression of ABCG2 in the cells was examined by Northern Blot analysis.

ABCG2 [1] = test: as above; assay type: cell-based, human; details: human; PC-13/ABCG2-2; average ± standard error of three independent experiments
Description: as §1, §2

LY = test: SRB drug sensitivity, LY parental fibroblasts; assay type: cell-based; details: Mus musculus, Fibroblast, 72 hours with agent
PC-13/Vector = test: SRB drug sensitivity, PC-13 transfected with vector alone; assay type: cell-based; details: Homo sapiens, average ± standard error of three independent experiments
Description: as §1, §2

PC13 = test: SRB drug sensitivity, PC-13 parental cells; assay type: cell-based; details: Homo sapiens, 72 hours with agent
LY/NR2 = test: SRB drug sensitivity, Compound-A-resistant LY/NR2; assay type: cell-based, mouse; details: for RR: Relative Resistance: IC50 LY/NR2 divided by IC50 LY; for IC50: Mus musculus, LY/NR2, SRB, 72 hours with agent
From the text: An emerging colony was isolated as described above and designated as LY/NR2.

HCT116 = test: SRB drug sensitivity, HCT116 parental cells; assay type: cell-based; details: Homo sapiens, HCT-116, 72 hours with agent
LY/NR1 = test: SRB drug sensitivity, Compound-A-resistant LY/NR1; assay type: cell-based, mouse; details: for RR: Relative Resistance: IC50 LY/NR1 divided by IC50 LY; for IC50: Mus musculus, LY/NR1, SRB, 72 hours with agent
From the text: A colony that grew under these conditions was isolated using a cloning ring (Asahi Techno Glass Corporation) and designated as LY/NR1.

PC13/NR13 = test: SRB drug sensitivity, Compound-A-resistant PC-13/NR13; assay type: cell-based, human; details: for IC50: Homo sapiens, PC-13, PC13/NR13, SRB, 72 hours with agent; for RR: Relative Resistance: IC50 PC13/NR13 divided by IC50 PC13
HeLaS3 = test: SRB drug sensitivity, HeLaS3 (Compound-A-sensitive); assay type: cell-based; details: Homo sapiens, HeLa S3, 72 hours with agent
HeLa#7 = test: SRB drug sensitivity, spontaneously resistant HeLa#7; assay type: cell-based, human; details: for IC50: Homo sapiens, HeLa#7, SRB, 72 hours with agent; for RR: Relative Resistance: IC50 HeLa#7 divided by IC50 HeLaS3
PC-13/ABCG2-3 = test: SRB drug sensitivity, PC-13 transfected with ABCG2 (clone 3); assay type: cell-based, human; details: IC50 PC-13/ABCG2-3 divided by IC50 of vector cells
Description: as §1, §2

ABCG2 [2] = test: as above; assay type: cell-based, human; details: human; PC-13/ABCG2-3; average ± standard error of three independent experiments
Description: as §1, §2

[3] = test system: PC-13 cell lines with introduced ABCG2; test: SRB drug sensitivity, PC-13 cell lines with introduced ABCG2 (stated jointly); assay type: cell-based, human; details: PC-13 cell lines with introduced ABCG2, versus vector alone
Description: as §1, §2

MCF-7/T8 = test: SRB drug sensitivity, MCF-7 with introduced ABCG2-482T; assay type: cell-based, human; details: MCF-7/T8 (ABCG2-482T)
Description: (§3) The full length human ABCG2 cDNA of the present invention prepared in Example 5 was inserted into a plasmid for expression in mammalian cells, followed by transfection of human breast cancer cells, MCF-7 cells, with the ABCG2 expression plasmid using Effectene Transfection Reagent (QIAGEN). Likewise, human breast cancer cells, MCF-7 cells, were transfected with a plasmid including the ABCG2-482T cDNA prepared in Example 10. The experiments were carried out according to an attached procedural manual. As a control experiment, the MCF-7 cells were also transfected with vector alone. The three experiments were conducted simultaneously. Two days from the transfection, the original media were replaced with selective media containing 900 μg/ml of Geneticin (GIBCO BRL). By culture over a prolonged term under this condition, stable transfectant clones with introduced plasmid were selected. Two to three weeks from the transfection, emerging colonies were picked and the expression of ABCG2 in the cells was examined by Northern Blot analysis. Northern Blot analysis was performed as described in Example 4: 8 μg of total RNA prepared from each clone using RNeasy mini kit (QIAGEN) was separated on a formaldehyde denatured agarose gel, followed by analysis using the human ABCG2 cDNA fragment of the present invention as a probe.
(§4) The drug sensitivity of the stable transfectant clones which were established from MCF-7 cells with introduced ABCG2- or ABCG2-482T-expression plasmid, was measured using SRB method as described in Example 2 and the sensitivity of each transfectant to drugs was shown as a relative resistance to the cells with introduced vector alone (FIG. 6).

MCF-7/R7 = test: SRB drug sensitivity, MCF-7 with introduced ABCG2 of the present invention; assay type: cell-based, human; details: MCF-7/R7 (ABCG2 of the present invention), FIG. 6
Description: as §3, §4

Structure (SMILES)	IC50 (HCT116/NR1) [nM]	IC50 at 72 h (ABCG2 [1]) [nM]	IC50 (HeLaS3) [nM]	IC50 (HeLa#7) [nM]	IC50 at 72 h (ABCG2 [2]) [nM]	RR: Relative Resistance (HCT116/NR1)	IC50 (LY) [nM]	IC50 (PC-13/Vector) [nM]	IC50 (PC13) [nM]	RR: Relative Resistance (LY/NR2)	IC50 (LY/NR2) [nM]	IC50 (HCT116) [nM]	RR: Relative Resistance (LY/NR1)	IC50 (LY/NR1) [nM]	IC50 (PC13/NR13) [nM]	RR: Relative Resistance (PC13/NR13)	RR: Relative Resistance (HeLa#7)	resistance of cells in which ABCG2 was forcedly expressed [3]	also measured
COc1cc([C@@H]2c3cc4c(cc3[C@@H](O[C@@H]3O[C@@H]5CO[C@@H](C)O[C@H]5[C@H](O)[C@H]3O)[C@H]3COC(=O)[C@H]23)OCO4)cc(OC)c1O [Etoposide]	3400	460 ± 75	1200	930	1100 ± 330	3.1	280	1000 ± 290	1200	4.7	2000	1100	2.1	520	3000	2.5	0.79	did not display remarkable resistance	Rel. Res. (relative resistance) (PC-13/ABCG2-2): 0.46; Rel. Res. (relative resistance) (PC-13/ABCG2-3): 1.1
COc1cccc2c1C(=O)c1c(O)c3c(c(O)c1C2=O)C[C@@](O)(C(=O)CO)C[C@@H]3O[C@H]1C[C@H](N)[C@H](O)[C@H](C)O1 [Doxorubicin]	59	–	35	29	–	2.3	43	–	28	4.5	190	25	1.6	67	70	2.5	0.81	not resistant	relative resistance to the cells with introduced vector alone (MCF-7/T8; FIG. 6, listed as Adriamycin): 9.6 fold; relative resistance to the cells with introduced vector alone (MCF-7/T8; FIG. 6, listed as adriamycin): showed resistance; relative resistance to the cells with introduced vector alone (MCF-7/R7): no resistance
COc1cccc2c1C(=O)c1c(O)c3c(c(O)c1C2=O)C[C@@](O)(C(C)=O)C[C@@H]3O[C@H]1C[C@H](N)[C@H](O)[C@H](C)O1 [Daunorubicin]	–	–	–	–	–	–	–	–	–	–	–	–	–	–	–	–	–	–	relative resistance to the cells with introduced vector alone (MCF-7/T8; FIG. 6): 5.1 fold; relative resistance to the cells with introduced vector alone (MCF-7/R7): no resistance
CC[C@@]1(O)C(=O)OCc2c1cc1n(c2=O)Cc2cc3ccccc3nc2-1 [Camptothecin]	17	29 ± 5	14	38	52 ± 8	1.8	46	43 ± 11	38	8.2	380	9.4	1.3	58	29	0.76	2.7	did not display remarkable resistance	Rel. Res. (relative resistance) (PC-13/ABCG2-2): 0.67; Rel. Res. (relative resistance) (PC-13/ABCG2-3): 1.2
CC[C@@]1(O)C(=O)OCc2c1cc1n(c2=O)Cc2cc3c(CN(C)C)c(O)ccc3nc2-1 [Topotecan]	–	190 ± 50	63	360	96 ± 22	–	69	210 ± 40	75	–	2900	34	–	250	1100	–	–	did not display remarkable resistance	–

Now from value to molecule, other results behind:

IC50 (HCT116/NR1) [nM]	IC50 at 72 h (ABCG2 [1]) [nM]	IC50 (HeLaS3) [nM]	IC50 (HeLa#7) [nM]	IC50 at 72 h (ABCG2 [2]) [nM]	Structure (SMILES)	RR: Relative Resistance (HCT116/NR1)	IC50 (LY) [nM]	IC50 (PC-13/Vector) [nM]	IC50 (PC13) [nM]	RR: Relative Resistance (LY/NR2)	IC50 (LY/NR2) [nM]	IC50 (HCT116) [nM]	RR: Relative Resistance (LY/NR1)	IC50 (LY/NR1) [nM]	IC50 (PC13/NR13) [nM]	RR: Relative Resistance (PC13/NR13)	RR: Relative Resistance (HeLa#7)	resistance of cells in which ABCG2 was forcedly expressed [3]	also measured
2.1	–	1	4.2	–	CC(=O)O[C@H]1C(=O)[C@@]2(C)[C@H]([C@H](OC(=O)c3ccccc3)[C@]3(O)C[C@H](OC(=O)[C@H](O)[C@@H](NC(=O)c4ccccc4)c4ccccc4)C(C)=C1C3(C)C)[C@]1(OC(C)=O)CO[C@@H]1C[C@@H]2O [Paclitaxel]	1.9	41	–	2	2.0	81	1.1	1.4	57	1.8	0.92	4.2	–	–
9.3	–	0.7	6.9	–	CC[C@]1(O)C[C@H]2CN(CCc3c([nH]c4ccccc34)[C@@](C(=O)OC)(c3cc4c(cc3OC)N(C=O)[C@H]3[C@@](O)(C(=O)OC)[C@H](OC(C)=O)[C@]5(CC)C=CCN6CC[C@]43[C@@H]65)C2)C1 [Vincristine]	4.7	15	–	13	1.7	25	2	0.77	11	7	0.56	9.9	–	–
